From ChEMBL document CHEMBL6121008, “New series of 3-pyridyl-1,3-thiazoles: In vitro and in vivo anti-Trypanosomatidae profile, in vitro and in silico mechanism of action approach” (Eur J Med Chem, 2025)

Columns and labels:
[1] = system: Trypanosoma cruzi; assay: Antiparasitic activity against trypomastigote form of Trypanosoma cruzi Tulahuen expressing Escherichia coli beta-galactosidase infected in mouse L929 cells assessed as reduction in parasitic growth using CPRG as substrate pretreated with compound for 96 hrs followed by substrate addition and measured after 16 to 20 hrs by Spectrophotometric analysis; format: functional, organism-based
[2] = Cytotoxicity against mouse L929 cells assessed as inhibition of cell viability incubated for 96 hrs by MTT assay; format: toxicity, cell-based
[3] = Selectivity index, ratio of CC50 for mouse L929 cells to IC50 for antiparasitic activity against trypomastigote and amastigote form of Trypanosoma cruzi Tulahuen expressing Escherichia coli beta-galactosidase infected in mouse L929 cells; format: toxicity; details: read-out: Selectivity Index
[4] = system: Trypanosoma cruzi; assay: Antiparasitic activity against amastigote form of Trypanosoma cruzi Tulahuen expressing Escherichia coli beta-galactosidase infected in mouse L929 cells assessed as reduction in parasitic growth using CPRG as substrate pretreated with compound for 96 hrs followed by substrate addition and measured after 16 to 20 hrs by Spectrophotometric analysis; format: functional, organism-based
[5] = system: Leishmania amazonensis; assay: Antiparasitic activity against Leishmania amazonensis WHOM/00 LTB 0016 promastigote expressing Escherichia coli beta-galactosidase assessed as reduction in parasitic growth using CPRG as substrate preincubated with compound for 72 hrs followed by substrate addition and measured after 10 mins by Spectrophotometric analysis; format: functional, organism-based
[6] = system: Leishmania infantum; assay: Antiparasitic activity against Leishmania infantum MHOM/MA/67/ITMAP-263 promastigote expressing Escherichia coli beta-galactosidase assessed as reduction in parasitic growth using CPRG as substrate preincubated with compound for 72 hrs followed by substrate addition and measured after 10 mins by Spectrophotometric analysis; format: functional, organism-based
[7] = system: Leishmania amazonensis; assay: Antiparasitic activity against Leishmania amazonensis amastigote expressing Escherichia coli beta-galactosidase infected in mouse RAW264.7 cells assessed as reduction in parasitic growth using CPRG as substrate preincubated with compound for 24 hrs followed by substrate addition and measured after 2 to 6 hrs by Spectrophotometric analysis; format: functional, organism-based
[8] = system: Leishmania infantum; assay: Antiparasitic activity against Leishmania infantum amastigote expressing Escherichia coli beta-galactosidase infected in mouse RAW264.7 cells assessed as reduction in parasitic growth using CPRG as substrate preincubated with compound for 24 hrs followed by substrate addition and measured after 2 to 6 hrs by Spectrophotometric analysis; format: functional, organism-based
[9] = Cytotoxicity against mouse RAW264.7 cells assessed as inhibition of cell viability incubated for 48 hrs by MTT assay; format: toxicity, cell-based
[10] = Selectivity index, ratio of CC50 for mouse RAW264.7 cells to IC50 for antiparasitic activity against Leishmania infantum MHOM/MA/67/ITMAP-263 promastigote expressing Escherichia coli beta-galactosidase; format: toxicity; details: read-out: Selectivity Index
[11] = Selectivity index, ratio of CC50 for mouse RAW264.7 cells to IC50 for antiparasitic activity against Leishmania amazonensis WHOM/00 LTB 0016 promastigote expressing Escherichia coli beta-galactosidase; format: toxicity; details: read-out: Selectivity Index
[12] = Selectivity index, ratio of CC50 for mouse RAW264.7 cells to IC50 for antiparasitic activity against Leishmania infantum amastigote expressing Escherichia coli beta-galactosidase infected in mouse RAW264.7 cells; format: toxicity; details: read-out: Selectivity Index
[13] = Selectivity index, ratio of CC50 for mouse RAW264.7 cells to IC50 for antiparasitic activity against Leishmania amazonensis amastigote expressing Escherichia coli beta-galactosidase infected in mouse RAW264.7 cells; format: toxicity; details: read-out: Selectivity Index
[14] = Leishmania amazonensis, WHOM/00 LTB 0016, read-out: IC50
[15] = Leishmania infantum, MHOM/MA/67/ITMAP-263, read-out: IC50
[16] = Leishmania infantum, RAW264.7, read-out: IC50
[17] = Leishmania amazonensis, RAW264.7, read-out: IC50

Compound | IC50 [1] [µM] | CC50 at 96 h [2] [µM] | selectivity ratio [3] | IC50 [4] [µM] | IC50 [5, 14] [µM] | IC50 [6, 15] [µM] | IC50 ([7]; raw264.7) | IC50 ([8]; raw264.7) | CC50 at 48 h [9] [µM] | selectivity ratio [10] | selectivity ratio [11] | IC50 [5] | IC50 [6] | IC50 [8, 16] [µM] | selectivity ratio [12] | IC50 [7, 17] [µM] | selectivity ratio [13]
C/C(=N\N=c1\scc(-c2ccc([N+](=O)[O-])cc2)n1C)c1cccnc1 | 2.5 | 88.6 | 35.4 | 2.5 | 168 | 200 | Not_active | Not_active | 41.2 | 0.2 | 0.2 | – | – | – | – | – | –
C/C(=N\N=c1\scc(-c2cccc([N+](=O)[O-])c2)n1C)c1cccnc1 | 1 | 13.3 | 13.3 | 1 | – | – | Not_active | – | 17.5 | – | – | Not_active | Not_active | 33.3 | 0.5 | – | –
C/C(=N\N=c1\scc(-c2cccc([N+](=O)[O-])c2)n1-c1ccccc1)c1cccnc1 | 2.9 | 18.3 | 6.3 | 2.9 | 6.5 | 23.3 | – | – | > 240 | > 10.3 | > 37 | – | – | 11.5 | > 20.8 | 9.4 | > 25.6
CNC(=S)N/N=C(\C)c1cccnc1 | – | – | – | – | 339 | – | – | Not_active | 148 | – | 0.4 | – | Not_active | – | – | 183 | 0.8
COc1ccc(-c2cs/c(=N/N=C(\C)c3cccnc3)n2-c2ccccc2)cc1 | < 0.2 | 5.2 | > 26 | < 0.2 | 5.2 | 16.7 | – | – | 22 | 1.3 | 4.2 | – | – | 9.5 | 2.3 | 6 | 3.7
C/C(=N\N=c1\scc(-c2ccc(C)cc2)n1C)c1cccnc1 | 4.9 | 23 | 4.7 | 4.9 | 75.5 | 53.7 | – | – | 36.2 | 0.7 | 0.5 | – | – | 18 | 2 | 31 | 1.2
C/C(=N\N=c1/[nH]c(-c2ccc(F)cc2)cs1)c1cccnc1 | 3.8 | > 320 | > 84.2 | 3.8 | – | – | – | Not_active | 52.3 | – | – | Not_active | Not_active | – | – | 44.7 | 0.6
C/C(=N\N=c1\scc(-c2ccc(F)cc2)n1-c1ccccc1)c1cccnc1 | 7.5 | 14.4 | 1.9 | 7.5 | 7.2 | 29.9 | – | – | 41.2 | 1.4 | 5.7 | – | – | 10.8 | 3.8 | 6.7 | 6.1
CCCCCCCCCCCCCCCCOP(=O)([O-])OCC[N+](C)(C)C [MILTEFOSINE] | – | – | – | – | – | 3.2 | – | – | – | 6.8 | 6.8 | – | – | 1.7 | 12.7 | 1.7 | 13.1
C[C@@H]1[C@H](O)[C@@H](C)/C=C/C=C/C=C/C=C/C=C/C=C/C=C/[C@H](O[C@@H]2O[C@H](C)[C@@H](O)[C@H](N)[C@@H]2O)C[C@@H]2O[C@](O)(C[C@@H](O)C[C@@H](O)[C@H](O)CC[C@@H](O)C[C@@H](O)CC(=O)O[C@H]1C)C[C@H](O)[C@H]2C(=O)O [AMPHOTERICIN B] | – | – | – | – | 0.1 | 0.2 | – | – | 3.5 | 17.5 | 35 | – | – | 0.06 | 58.3 | 0.04 | 87.5
C/C(=N\N=c1\scc(-c2ccc(F)cc2)n1C)c1cccnc1 | 3.7 | 15.6 | 4.2 | 3.7 | 32.7 | 21.1 | – | – | 15 | 0.7 | 0.5 | – | – | 12.5 | 1.2 | 17.4 | 0.9
C/C(=N\N=c1/[nH]c(-c2ccc([N+](=O)[O-])cc2)cs1)c1cccnc1 | 59.4 | > 295 | > 5 | 59.4 | – | – | – | – | 63.6 | – | – | Not_active | Not_active | 45.6 | 1.4 | 295 | 0.2
C/C(=N\NC(N)=S)c1cccnc1 | – | – | – | – | – | – | – | – | 213 | – | – | Not_active | Not_active | 163 | 1.3 | 275 | 0.8
C/C(=N\NC(=S)Nc1ccccc1)c1cccnc1 | – | – | – | – | 7 | 21.8 | – | – | – | 4.4 | 13.7 | – | – | 21.1 | 4.5 | – | –
COc1ccc(-c2cs/c(=N/N=C(\C)c3cccnc3)n2C)cc1 | 2 | 6.2 | 3.1 | 2 | 38.7 | 20.1 | – | – | 14.7 | 0.7 | 0.4 | – | – | 12.4 | 1.2 | 14.8 | 1
C/C(=N\N=c1\scc(-c2ccccc2)n1-c1ccccc1)c1cccnc1 | 5.7 | 11.6 | 2 | 5.7 | 15.4 | 31 | – | – | 29.4 | 0.9 | 1.9 | – | – | 8.9 | 3.3 | 13.5 | 2.2
